In one data set the test system is Sprague Dawley rat pups. As to the kind of experiment: rodent model of VGB-induced IME (white matter injury and vacuolation). Type of data set: in vivo. Here is the method: Model of VGB-induced IME. We adhere to the same protocol used by Ovation in recent studies. Sprague Dawley rat pups are treated from postnatal day 4-25 with VBG (50 mg/kg) or vehicle. This is administered by oral gavage to rats starting on PND 4. The single dose of 50 mg/kg was selected on the basis of the previous study in which it produced vacuolar lesions (24, 31). Rats are sacrificed at P25 and perfused with 4% paraformaldehyde. Brains are cryoprotected in sucrose for frozen sectioning.
Treatment groups. We use an n of 15 animals per group. Vehicle only, VGB alone, or VGB and bumetanide. The doses are daily.
Histological and immunocytochemical methods. Using our published protocols for quantification of white matter myelination (29) we perform MBP staining. 16 μm coronal cryostat sections (Leica CM3050 S) were collected on Superfrost Plus slides. […]
Data analysis. Fluorescence images are obtained on a Zeiss Axioscope, using a Spot digital camera and Advanced 4.5 software (Diagnostic Instruments). […] ImageJ software is used to quantitate MBP and O4 immunostaining as a proportion of the white matter capsule area (29). This methodology was validated with ImageJ software quantitation of total area of MBP immunostaining within each 2.4 mm2 field. […]

For the next data set, the target named is T1, NKCC1 (Rattus norvegicus, UniProt E9PTX9).
T1 construct: host or cells: rat brain, in vivo (endogenous protein)
T1 sequence (E9PTX9 1-1203): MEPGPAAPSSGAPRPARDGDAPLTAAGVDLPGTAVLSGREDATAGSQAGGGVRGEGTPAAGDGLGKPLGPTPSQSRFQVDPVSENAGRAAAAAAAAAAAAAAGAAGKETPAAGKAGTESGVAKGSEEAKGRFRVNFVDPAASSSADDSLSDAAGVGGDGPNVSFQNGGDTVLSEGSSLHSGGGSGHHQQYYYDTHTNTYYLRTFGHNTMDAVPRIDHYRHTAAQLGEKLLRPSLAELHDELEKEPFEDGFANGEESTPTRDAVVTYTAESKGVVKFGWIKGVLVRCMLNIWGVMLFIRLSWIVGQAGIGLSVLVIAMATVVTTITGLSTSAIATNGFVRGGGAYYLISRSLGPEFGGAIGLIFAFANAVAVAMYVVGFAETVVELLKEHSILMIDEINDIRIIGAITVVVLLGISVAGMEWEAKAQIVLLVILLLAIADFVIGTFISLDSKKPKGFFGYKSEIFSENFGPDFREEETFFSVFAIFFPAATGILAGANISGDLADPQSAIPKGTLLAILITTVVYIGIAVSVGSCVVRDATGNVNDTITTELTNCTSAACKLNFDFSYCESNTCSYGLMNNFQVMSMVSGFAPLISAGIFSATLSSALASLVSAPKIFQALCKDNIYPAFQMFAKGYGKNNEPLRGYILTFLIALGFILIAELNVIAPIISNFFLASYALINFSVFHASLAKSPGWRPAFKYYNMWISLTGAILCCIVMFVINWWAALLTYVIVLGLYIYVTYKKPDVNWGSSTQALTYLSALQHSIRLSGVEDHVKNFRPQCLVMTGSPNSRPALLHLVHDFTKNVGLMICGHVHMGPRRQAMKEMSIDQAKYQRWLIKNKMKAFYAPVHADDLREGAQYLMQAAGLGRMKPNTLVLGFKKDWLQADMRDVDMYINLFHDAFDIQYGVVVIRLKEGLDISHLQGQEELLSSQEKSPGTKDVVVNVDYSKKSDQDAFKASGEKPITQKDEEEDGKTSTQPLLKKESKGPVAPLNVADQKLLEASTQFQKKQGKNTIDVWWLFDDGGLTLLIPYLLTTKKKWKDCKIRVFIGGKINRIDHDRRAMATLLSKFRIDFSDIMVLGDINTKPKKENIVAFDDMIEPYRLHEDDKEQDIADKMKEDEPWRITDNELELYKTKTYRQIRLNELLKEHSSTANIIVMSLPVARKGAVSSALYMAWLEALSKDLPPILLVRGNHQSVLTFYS
The conditions noted are these: bumetanide 0.1 mg/kg, rats, prior work; cited from earlier work.

A further data set deals with Sprague Dawley rats. As to the kind of experiment: rat model of vigabatrin (VGB)-induced retinal toxicity, histopathologic analysis of retina. The note with it: for VGB-induced retinal toxicity: 30 days.
The conditions of data set [1]: FDA not approvable action 1998; cited from earlier work.
The mark [2] stands for this setting: bumetanide higher dose (0.2 mg/kg).

Procedure for Sprague Dawley rats: We closely follow the methods of Duboc, et al (12) that recommend 30 days of treatment in juvenile rats to induce a lesion.
Model of VGB-induced toxicity. VGB is administered to young adult/juvenile Sprague Dawley rats between 6-7 weeks of age for a period of 30 days. VGB is dissolved in 0.9% NaCl at 100 mg/mL and injected intraperitoneally (i.p.) daily for 30 days at doses of 5 and 3 mg/day as described for treatment of animal epilepsy (26).
Treatment groups. We use of 15 animals per group. […] The doses are daily.
Histopathologic analysis of retina. As per established protocols eye cups are fixed overnight at 4° C. in 4% (wt/vol) paraformaldehyde in phosphate buffered saline PBS) 0.01M, pH 7.4. After cryoprotection in PBS containing successively 10, 20, and 30% sucrose at 4° C., the tissue is embedded in OCT (Labonord, Villeneuve d'Ascq, France). A preliminary analysis of general retinal morphology is performed on vertical sections (8-10 μm thickness) using hematoxylin and eosin. Additional sections are permeabilized for 5 minutes in PBS containing 0.1% Triton X-100 (Sigma, St. Louis, Mo.), rinsed, and incubated in PBS containing 1% bovine serum albumin (Eurobio, Les-Ulis, France), 0.1% Tween 20 (Sigma), and 0.1% sodium azide (Merck, Fontenay-Ss-Bois) for 2 hours at room temperature. The primary antibody is added to the solution and incubated for 2 hours at room temperature. Antibodies were anti-GFAP rabbit polyclonal antibody (1:400; DAKO), and antiactive caspase-3 rabbit polyclonal antibody (1:100; Cell Signaling Technology, Beverly, Mass.). […] Cone photoreceptors are stained with peanut agglutinin lectin coupled to Texas Red (PNA, 1:40; Sigma). […] The dye, diamidiphenyl-indole (DAPI), is added to any incubation solution. Sections are mounted with Fluorsave reagent (Calbiochem, San Diego, Calif.). PNA-stained cone inner/outer segments are counted on retinal sections in eight consecutive 300 μm-wide optical windows on each side of the optic nerve under the 40× objective. Areas with a disorganized outer nuclear layer are specifically excluded from this count. Vertical sections are stained with hematoxylin and eosin.
Tissue Preparation for Electron Microscopy. […] The tissue is rinsed in cacodylate 0.15M and postfixed in 1% osmium tetroxide (Electron MicroscopySciences) for 1 hour. After dehydration in ethanol, and propylene oxide, the tissue is embedded in epon. Semithin sections are stained with methylene blue and ultrathin sections (80 nm) contrasted with lead citrate and uranyl acetate.
Data analysis. For quantification we use the same outcome measures of retinal injury as Duboc et al and Jammoul et al (12, 25). Vertical sections along the dorsoventral axis are selected at the optic nerve. After DAPI nuclear staining, the lengths of disorganized retinal areas are measured; GFAP immunostaining is used for detection and quantification of retinal areas with reactive gliosis. The cone photoreceptor density is calculated after cone arrestin immunostaining to visualize the inner/outer segments of cone photoreceptors; areas with disorganized retinal layering were excluded.

In the case of `CCCCNc1cc(C(=O)O)cc(S(N)(=O)=O)c1Oc1ccccc1` [bumetanide, Bumetanide], the “protection against VGB-induced white matter injury / IME” value was “additional efficacy” in the data set on Sprague Dawley rat pups (higher dose of bumetanide (0.2 mg/kg) with VGB 50 mg/kg/day) and “shows protective efficacy” in the data set on Sprague Dawley rat pups (lower dose of bumetanide (0.1 mg/kg/day i.p.) with VGB 50 mg/kg/day, PND 4-25). For the same compound, the “suppression of NKCC1 in brain” value on NKCC1 is on record as “effectively suppresses NKCC1 in brain”. In addition, the VGB-induced retinal toxicity result with Sprague Dawley rats (bumetanide 0.2 mg/kg dose with VGB) was “additional efficacy”; with Sprague Dawley rats (lower dose of bumetanide 0.1 mg/kg i.p. daily with VGB 5 mg/day), “significant decrease in toxicity”. The “adverse effects of diuresis” value in the data set with Sprague Dawley rats (setting [2]) is “no adverse effects of any modest diuresis”. Also, the “effects on body weight or skin turgor” value in the data set on Sprague Dawley rats (setting [2]) is listed as “nor any significant effects on body weight or skin turgor”.
For the compound `C=CC(N)CCC(=O)O` (stereo not drawn) [vigabatrin, gamma-vinyl-GABA], the “incidence of permanent vision loss” value in data set [1] is given as 30%. Besides, the “vigabatrin toxicity in retina (histopathology)” value in the data set with Sprague Dawley rats (VGB i.p. daily for 30 days, juvenile rats) was “photoreceptor injury/loss and vacuolization”.

Source of the values: patent publication US8822539B2, “Combination therapies: inhibitors of GABA transaminase and NKCC1” (Children's Medical Center Corporation, priority 2010, dated 2014).
